Test: Pharmacokinetic study in sham and myocardial ischemia model rats after a single oral dose of QSKL (UHPLC-psMS/MS of plasma, non-compartmental analysis)
Conditions: for AUC(0-inf): AUC0–∞
[1] = QSKL-treated plasma samples, sham and model rats, single oral dose 8.0 g/kg
[2] = male, Sprague-Dawley, rat, plasma, po, 8 g/kg, AUC0–t, model group (MG, myocardial ischemia) rats, oral administration of QSKL, plasma, mean ± SD, n = 6
[3] = male, Sprague-Dawley, rat, plasma, po, 8 g/kg, AUC0–t, sham group (SG) rats, oral administration of QSKL, plasma, mean ± SD, n = 6
[4] = male, Sprague-Dawley, rat, plasma, po, 8 g/kg, model group (MG, myocardial ischemia) rats, oral administration of QSKL, plasma, mean ± SD, n = 6
[5] = male, Sprague-Dawley, rat, plasma, po, 8 g/kg, AUC0→t, model (myocardial ischemia, LAD ligation) rats, single oral dose of 8.0 g/kg QSKL, mean ± SD, n = 6
[6] = male, Sprague-Dawley, rat, plasma, po, 8 g/kg, AUC0→t, sham rats, single oral dose of 8.0 g/kg QSKL, mean ± SD, n = 6
[7] = male, Sprague-Dawley, rat, plasma, po, 8 g/kg, Cmax, sham group (SG) rats, oral administration of QSKL, plasma, mean ± SD, n = 6
[8] = male, Sprague-Dawley, rat, plasma, po, 8 g/kg, rats, after oral dosing QSKL 8.0 g/kg
[9] = male, Sprague-Dawley, rat, plasma, po, 8 g/kg, sham group (SG) rats, oral administration of QSKL, plasma, mean ± SD, n = 6
[10] = male, Sprague-Dawley, rat, plasma, po, 8 g/kg, t1/2, model group (MG, myocardial ischemia) rats, oral administration of QSKL, plasma, mean ± SD, n = 6
[11] = rats, after oral dosing QSKL 8.0 g/kg
[12] = male, Sprague-Dawley, rat, plasma, po, 8 g/kg, Cmax, model group (MG, myocardial ischemia) rats, oral administration of QSKL, plasma, mean ± SD, n = 6
[13] = male, Sprague-Dawley, rat, plasma, po, 8 g/kg, t1/2, sham group (SG) rats, oral administration of QSKL, plasma, mean ± SD, n = 6

Description: Twelve male Spargue-Dawley rats (200 ± 20 g) were supplied by Vital River Laboratory Animal Technology Co. Ltd. (Beijing, China). […] The rats were acclimated under a humidity (50%) controlled room at 22–25 °C with a 12 h light-dark cycle, and standard diet and water were provided ad libitum for one week.
Afterwards, all rats were randomly divided into two groups, namely sham and model groups. The myocardial ischemia model was simulated by left anterior descending (LAD) coronary artery ligation [12], whilst the rats belonging to the sham group received the similar surgery, however no actual ligation in LAD. All animals were fasted overnight with free access to water prior to oral dosing. Aliquots (250 μL) of blood were sampled at 0 (pre-dose), 0.08, 0.25, 0.5, 0.75, 1, 1.5, 2, 4, 6, 8, 12, and 24 h from venous around eye socket into heparinized tubes after a single oral dosing of 8.0 g/kg of QSKL and the collected blood samples were immediately subjected for 4000 rpm centrifugation for 10 min at 4 °C to harvest the plasma samples. Each 100 μL aliquot of plasma sample was transferred into another Eppendorf tube and stored at −80 °C till use.
When analysis, 300 μL of internal standards (200 ng/mL for either internal standard) fortified ACN, corresponding to three volumes of plasma, was spiked into each thawed plasma sample and mixed thoroughly. Then, the resulting samples were processed as those calibration samples.
Individual animal plasma concentrations versus time dataset were subjected to a non-compartmental pharmacokinetic analysis using WinNonlin software (ver. 6.4, Pharsight Corp., Sunnyvale, CA, USA). The pharmacokinetic parameters of each analyte including the maximum plasma concentration (Cmax), the time at which Cmax was achieved (Tmax), the terminal elimination half-life (t1/2), and the area under the plasma concentration versus time curve (AUC0→t along with AUC0→∞) were calculated. Moreover, Lz corresponding to the ratio of the dosage and AUC0→∞, as well as mean residence time (MRT) that was defined as the ratio of the area under the first moment curve from time 0 to infinity (AUMC0→∞/AUC0→∞) was also calculated. All results are expressed as mean ± SD. Comparisons regarding the pharmacokinetic parameters were carried out between sham and model groups using Student’s t-test, and p values less than 0.05 were considered to be significant.

distribution in rat plasma (quantifiable or not) [1]	AUC(0-t) [2] [ng·h/mL]	AUC(0-t) [3] [ng·h/mL]	AUC(0-inf) [4] [ng·h/mL]	Cmax [7] [ng/mL]	MRT [4] [h]	Tmax [4] [h]	Tmax [9] [h]	half-life [10] [h]	Cmax [12] [ng/mL]	AUC(0-inf) [9] [ng·h/mL]	MRT [9] [h]	half-life [13] [h]	SMILES	other results
–	2.4 ± 2.04	–	2.2 ± 1.77	–	18.7 ± 16.7	0.56 ± 0.38	–	16.1 ± 11.3	1.02 ± 0.692	–	–	–	C[C@]1(OC(=O)/C=C/c2ccccc2)C[C@@H](O)[C@]2(O)C=CO[C@@H](O[C@@H]3O[C@H](CO)[C@@H](O)[C@H](O)[C@H]3O)[C@@H]21 [harpagoside]	Cmax (male, Sprague-Dawley, rat, plasma, po, 8 g/kg, Cmax, model (myocardial ischemia, LAD ligation) rats, single oral dose of 8.0 g/kg QSKL, mean ± SD, n = 6): 1.02 ± 0.692 ng/mL; distribution in rat plasma (quantifiable or not) (plasma of the model group, single oral dose 8.0 g/kg QSKL): always quantifiable; distribution in rat plasma (quantifiable or not) (samples from the sham group, single oral dose 8.0 g/kg QSKL): lower than its LOQ
quantifiable in most samples	4.28 ± 0.678	3.18 ± 0.664	7.17 ± 3.08	0.376 ± 0.15	26.4 ± 14.9	8.71 ± 8.03	0.67 ± 0.3	18 ± 10.8	0.349 ± 0.089	4.77 ± 1.45	20.9 ± 5.14	13.8 ± 4.05	Cc1coc2c1C(=O)C(=O)c1c-2ccc2c1CCCC2(C)C [tanshinone IIA]	AUC(0-t) [5]: 4.28 ± 0.678 ng·h/mL; AUC(0-t) [6]: 3.18 ± 0.664 ng·h/mL; Tmax [8]: 8 h
quantifiable in most samples	1.2 ± 0.482	0.966 ± 0.351	1.32 ± 0.472	0.243 ± 0.127	5.47 ± 2.56	0.51 ± 0.46	0.61 ± 0.53	3.81 ± 1.89	0.47 ± 0.291	1.22 ± 0.609	7 ± 2.97	4.7 ± 2.32	COc1ccc(-c2coc3cc(O)ccc3c2=O)cc1 [formononetin]	–
–	1.56 ± 0.668	1.87 ± 1.21	1.71 ± 0.74	0.389 ± 0.137	8.14 ± 2.95	0.37 ± 0.28	0.15 ± 0.13	4.69 ± 2.06	0.401 ± 0.103	2.07 ± 1.31	7.85 ± 0.6	4.37 ± 1.37	O=C(/C=C/c1ccc(O)cc1)c1ccc(O)cc1O [isoliquiritigenin]	shape of plasma concentration-time profile [11]: Multiple-peak profiles
quantifiable in most samples	0.89 ± 0.284	1.03 ± 0.181	1.04 ± 0.268	0.3 ± 0.244	15 ± 4.54	0.28 ± 0.24	0.33 ± 0.29	9.27 ± 3.21	0.347 ± 0.197	3.09 ± 1.95	55.9 ± 34.6	38.2 ± 24.5	COc1ccc(-c2coc3cc(O)ccc3c2=O)cc1O [calycosin]	–
quantifiable in most samples	19.5 ± 3.53	16.5 ± 3.91	29.2 ± 4.1	2.04 ± 1.07	21.1 ± 8.23	0.46 ± 0.25	0.37 ± 0.19	14.2 ± 5.79	4.21 ± 3.41	24.9 ± 2.95	25.1 ± 13.5	15.8 ± 9.38	COC(=O)C1=CO[C@@H](O[C@@H]2O[C@H](CO)[C@@H](O)[C@H](O)[C@H]2O)[C@@H]2[C@H](C)O[C@@H](O)C[C@H]12 [morroniside]	–

SMILES	distribution in rat plasma (quantifiable or not) [1]	AUC(0-t) [2] [ng·h/mL]	AUC(0-t) [3] [ng·h/mL]	AUC(0-inf) [4] [ng·h/mL]	Cmax [7] [ng/mL]	MRT [4] [h]	Tmax [4] [h]	Tmax [9] [h]	half-life [10] [h]	Cmax [12] [ng/mL]	AUC(0-inf) [9] [ng·h/mL]	MRT [9] [h]	half-life [13] [h]	other results
C[C@@H]1O[C@@H](O[C@@H]2[C@@H](O)[C@H](OCCc3ccc(O)c(O)c3)O[C@H](COC(=O)/C=C/c3ccc(O)c(O)c3)[C@H]2O)[C@H](O)[C@H](O)[C@H]1O [isoacteoside]	unquantifiable in most QSKL-treated samples	–	–	–	–	–	–	–	–	–	–	–	–	–
CC1(C)[C@@H](O)CC[C@]2(C)[C@H]3C(=O)C=C4[C@@H]5C[C@@](C)(C(=O)O)CC[C@]5(C)CC[C@@]4(C)[C@]3(C)CC[C@@H]12 [glycyrrhetic acid]	–	5040 ± 1860	3200 ± 298	14500 ± 5750	230 ± 57.1	41.9 ± 21.5	13.3 ± 8.55	14 ± 4.9	26.3 ± 15.6	–	–	–	–	AUC(0-t) [5]: 5040 ± 1860 ng·h/mL; AUC(0-t) [6]: 3200 ± 298 ng·h/mL; Cmax (male, Sprague-Dawley, rat, plasma, po, 8 g/kg, Cmax, sham rats, single oral dose of 8.0 g/kg QSKL, mean ± SD, n = 6): 230 ± 57.1 ng/mL; Tmax [8]: > 12 h; Cmax (model (myocardial ischemia, LAD ligation) rats, single oral dose of 8.0 g/kg QSKL, mean ± SD, n = 6): 376 ± 196 ng/mL; Cmax (model group (MG, myocardial ischemia) rats, oral administration of QSKL, plasma, mean ± SD, n = 6): 376 ± 196 ng/mL; shape of plasma concentration-time profile [11]: Multiple-peak profiles
CCN1C[C@]2(COC)[C@H](O)C[C@H](OC)[C@@]34[C@@H]5C[C@@]6(O)[C@H](OC(=O)c7ccccc7)[C@@H]5[C@@](OC(C)=O)([C@@H]([C@H](OC)[C@H]23)[C@@H]14)[C@@H](O)[C@@H]6OC [aconitine]	unquantifiable in most QSKL-treated samples	–	–	–	–	–	–	–	–	–	–	–	–	–

Source: article PMC6150229, “Simultaneous Determination of Twenty-Five Compounds in Rat Plasma Using Ultra-High Performance Liquid Chromatography-Polarity Switching Tandem Mass Spectrometry and Its Application to a Pharmacokinetic Study” (Molecules : A Journal of Synthetic Chemistry and Natural …, 2017)
